One compound from ChEMBL document CHEMBL2074032, “Involvement of MDR1 P-glycoprotein in multifactorial resistance to methotrexate” (Int J Cancer, 1996) can be followed below.

In this data set the target is ATP-dependent translocase ABCB1 (Homo sapiens, UniProt P08183). Description: TP_TRANSPORTER: intracellular accumulation in CEM/MTX R cells. Type of data set: functional, cell-based.
Sequence of ATP-dependent translocase ABCB1 (P08183 whole entry): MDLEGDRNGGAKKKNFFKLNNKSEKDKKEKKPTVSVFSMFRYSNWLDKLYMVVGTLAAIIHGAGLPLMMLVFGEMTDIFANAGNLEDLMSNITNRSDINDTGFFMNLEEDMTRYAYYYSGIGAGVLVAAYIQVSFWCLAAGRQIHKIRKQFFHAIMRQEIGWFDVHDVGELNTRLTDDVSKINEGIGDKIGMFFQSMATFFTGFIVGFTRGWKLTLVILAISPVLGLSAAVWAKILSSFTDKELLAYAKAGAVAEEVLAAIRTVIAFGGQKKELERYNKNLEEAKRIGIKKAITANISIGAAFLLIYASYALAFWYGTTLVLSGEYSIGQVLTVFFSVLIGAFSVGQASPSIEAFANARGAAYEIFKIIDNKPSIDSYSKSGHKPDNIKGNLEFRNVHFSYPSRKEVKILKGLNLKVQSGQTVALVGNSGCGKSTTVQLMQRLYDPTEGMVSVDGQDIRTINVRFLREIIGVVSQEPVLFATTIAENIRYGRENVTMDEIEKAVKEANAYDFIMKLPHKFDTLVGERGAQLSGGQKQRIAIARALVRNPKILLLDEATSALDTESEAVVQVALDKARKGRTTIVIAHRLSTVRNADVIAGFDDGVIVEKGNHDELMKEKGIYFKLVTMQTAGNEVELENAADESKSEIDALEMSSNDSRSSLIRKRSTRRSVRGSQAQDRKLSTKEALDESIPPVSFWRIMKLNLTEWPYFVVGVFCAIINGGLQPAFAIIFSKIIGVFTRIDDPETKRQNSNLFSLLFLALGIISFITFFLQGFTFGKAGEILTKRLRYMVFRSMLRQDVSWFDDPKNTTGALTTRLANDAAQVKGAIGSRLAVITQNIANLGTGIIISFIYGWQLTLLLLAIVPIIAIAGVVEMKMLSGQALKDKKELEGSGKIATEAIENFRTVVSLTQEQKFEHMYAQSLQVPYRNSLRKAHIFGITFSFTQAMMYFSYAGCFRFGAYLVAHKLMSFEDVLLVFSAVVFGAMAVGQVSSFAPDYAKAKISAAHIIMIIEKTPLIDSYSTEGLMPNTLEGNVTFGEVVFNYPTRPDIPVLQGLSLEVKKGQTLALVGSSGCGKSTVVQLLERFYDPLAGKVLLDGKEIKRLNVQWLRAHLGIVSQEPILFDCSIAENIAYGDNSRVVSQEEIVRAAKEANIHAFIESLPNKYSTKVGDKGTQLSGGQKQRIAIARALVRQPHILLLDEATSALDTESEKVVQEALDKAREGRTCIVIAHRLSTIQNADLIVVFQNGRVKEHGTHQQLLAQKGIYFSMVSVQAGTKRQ

In the case of `CN(Cc1cnc2nc(N)nc(N)c2n1)c1ccc(C(=O)N[C@@H](CCC(=O)O)C(=O)O)cc1` [METHOTREXATE], the Activity entry is “substrate [+]”.
